Assay results published in PubChem BioAssay (NCI).
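Cells were grown in 96-well plates and exposed to each compound for 48 hours at five concentrations; endpoints were interpolated linearly between bracketing concentrations, or set to the highest concentration if not reached. Abbreviation: GI50, concentration required for 50% inhibition of growth. At the TGI there is no net growth.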

Columns and labels:
Test in all cases: growth of human tumour cells (NCI), 48 h
LXFL 529 NSCLC = system: LXFL 529 NSCLC
LOX IMVI melanoma = system: LOX IMVI melanoma
DLD-1 colon = system: DLD-1 colon
UO-31 renal = system: UO-31 renal
SK-MEL-28 melanoma = system: SK-MEL-28 melanoma
NCI-H460 lung = system: NCI-H460 lung
K-562 leukemia = system: K-562 leukemia
HT29 colon = system: HT29 colon
OVCAR-5 ovarian = system: OVCAR-5 ovarian
NCI/ADR-RES ovarian = system: NCI/ADR-RES ovarian

| Compound | TGI (LXFL 529 NSCLC) [µM] | TGI (LOX IMVI melanoma) [µM] | TGI (DLD-1 colon) [µM] | TGI (UO-31 renal) [µM] | TGI (SK-MEL-28 melanoma) [µM] | TGI (NCI-H460 lung) [µM] | TGI (K-562 leukemia) [µM] | TGI (HT29 colon) [µM] | TGI (OVCAR-5 ovarian) [µM] | GI50 (NCI/ADR-RES ovarian) [µM] | TGI (NCI/ADR-RES ovarian) [µM] | GI50 (LOX IMVI melanoma) [µM] | GI50 (UO-31 renal) [µM] | GI50 (SK-MEL-28 melanoma) [µM] | GI50 (NCI-H460 lung) [µM] | GI50 (K-562 leukemia) [µM] | GI50 (HT29 colon) [µM] | GI50 (OVCAR-5 ovarian) [µM] | GI50 (LXFL 529 NSCLC) [µM] | GI50 (DLD-1 colon) [µM] |
| --- | --- | --- | --- | --- | --- | --- | --- | --- | --- | --- | --- | --- | --- | --- | --- | --- | --- | --- | --- | --- |
| CN(C)CCC(=O)N1CCc2c([nH]c3ccccc23)C1c1cccnc1 (stereo not drawn) | > 100 | > 100 | > 100 | > 100 | > 100 | > 100 | > 100 | > 100 | > 100 | – | – | – | – | – | – | – | – | – | – | – |
| O=C1[C@@H]2C(c3ccncc3)=NO[C@@H]2C(=O)N1c1ccc(Cc2ccc(N3C(=O)[C@H]4C(c5ccncc5)=NO[C@H]4C3=O)cc2)cc1 | > 100 | > 100 | > 100 | > 100 | > 100 | > 100 | > 100 | > 100 | > 100 | – | – | – | – | – | – | – | – | – | – | – |
| Cc1cccc2cc3cccc(C(=O)NCCN(C)C)c3nc12 | 10.6 | 0.568 | 5.11 | 0.552 | 2.21 | 0.312 | 11.3 | 3.94 | 1.63 | – | – | – | – | – | – | – | – | – | – | – |
| COc1ccc(C(=O)C/C(=N/NC(N)=S)C(=O)Nc2ccccc2)cc1 | > 100 | > 100 | > 100 | > 100 | > 100 | > 100 | > 100 | > 100 | > 100 | – | – | – | – | – | – | – | – | – | – | – |
| CCOC(=O)C1=C(c2ccccc2)NC(c2ccccc2)=C(C(=O)OCC)c2c1c(=O)cc[nH]c2=O | > 100 | > 100 | > 100 | > 100 | > 100 | > 100 | > 100 | > 100 | > 100 | – | – | – | – | – | – | – | – | – | – | – |
| CN(C)CCC(/C=C/c1ccccc1)=N\Nc1ccc(Cl)cc1 | 9.26 | 3.57 | 11.1 | 4.24 | 27.2 | 4.29 | 5.02 | 13.9 | 2.89 | – | – | – | – | – | – | – | – | – | – | – |
| CCOC(=O)C1=C(C)N(NC(=O)OC)C2(N)N(NC(=O)OC)C(C)=C(C(=O)OCC)C12C#N (stereo not drawn) | > 100 | > 100 | > 100 | > 100 | > 100 | > 100 | > 100 | > 100 | > 100 | – | – | – | – | – | – | – | – | – | – | – |
| O=C(Nc1cc(C(F)(F)F)cc(C(F)(F)F)c1)Nc1ccc(OCc2nnc(-c3ccc(Cl)cc3)o2)c(F)c1 | – | 5.31 | – | 8.75 | 15.1 | 7.65 | 24.3 | 10.3 | 13.7 | 1.85 | 7.91 | 2.07 | 1.86 | 3.3 | 2 | 2.37 | 2.7 | 2.76 | – | – |
| C=C1[C@@H](O)C[C@H]2C(C)(C)C[C@H](Cl)C[C@]2(C)[C@H]1C[C@H](O)[C@H]1CC(=O)NC1=O | – | 0.442 | – | 0.212 | 0.127 | 0.29 | – | 0.119 | 0.395 | < 0.0447 | 0.508 | < 0.0445 | 0.0185 | 0.0161 | < 0.01 | 0.0121 | < 0.0105 | 0.0269 | – | – |
| Cc1cc(Cl)ccc1N1C(=O)C(=O)C(c2nc3ccccc3o2)C(=O)C1=O | > 100 | – | > 100 | > 100 | > 100 | > 100 | – | > 100 | – | – | – | – | – | – | – | – | – | – | – | – |
| Cc1cccc(Cl)c1NC(=O)c1cccc([N+](=O)[O-])c1O | > 100 | 82.9 | > 100 | 59.5 | > 100 | > 100 | > 100 | > 100 | > 100 | – | – | – | – | – | – | – | – | – | – | – |
| CSC(=NC#N)S/C=C/C(=O)c1cccc2ccccc12 | – | > 100 | – | 73.5 | 73.4 | > 100 | > 100 | > 100 | 82.9 | 40.8 | > 100 | 20.5 | 26 | 28.7 | 37.8 | 29.2 | 53.9 | 28.3 | – | – |
| CCOc1ccc(NC(=O)c2cc3ccccc3cc2O)cc1 | – | > 100 | – | > 100 | > 100 | > 100 | > 100 | > 100 | > 100 | 51.3 | > 100 | 58.1 | 49.3 | > 100 | > 100 | 52.5 | > 100 | > 100 | – | – |
| c1ccc2c(-c3cnn4cc(-c5ccc(N6CCNCC6)cc5)cnc34)ccnc2c1 | – | 2.58 | – | 2.43 | 0.35 | 0.525 | 0.696 | 1.91 | 2.24 | 1.72 | 3.42 | 1.27 | 1.19 | 0.182 | 0.216 | 0.226 | 0.547 | 0.806 | – | – |
| CC(=O)OCC1OC(n2c(=S)n(-c3ccccc3)c(=O)c3cc(Br)ccc32)C(OC(C)=O)C(OC(C)=O)C1OC(C)=O (stereo not drawn) | > 100 | > 100 | > 100 | > 100 | > 100 | > 100 | > 100 | > 100 | > 100 | – | – | – | – | – | – | – | – | – | – | – |
| O=[N+]([O-])c1ccc2nc3ccscc-3c2c1 | 27.3 | 85.9 | > 100 | > 100 | > 100 | 49.4 | > 100 | > 100 | > 100 | – | – | – | – | – | – | – | – | – | – | – |
| C/C=C/C=C/CCCCCCCCCCCCC[C@]1(OC)C=CC(CC(=O)OC)OO1 (stereo partly drawn) | 28.2 | 37.1 | 41.9 | – | 36.1 | 46.8 | 52.1 | 48.1 | – | – | – | 19.3 | – | – | – | – | 21.9 | – | 14.7 | 20.2 |
| O=C(O)c1nnsc1-c1csnn1 | – | > 100 | – | > 100 | > 100 | > 100 | > 100 | > 100 | > 100 | – | > 100 | – | – | – | – | – | – | – | – | – |
| OCC#CCCCCOCC#Cc1ccccc1C#CCOCCCCC#CCO | – | 27.3 | – | > 100 | 51.6 | > 100 | 65.6 | 63.6 | > 100 | 23.6 | 57.9 | 12.5 | 55.5 | 20.1 | 31.3 | 22.3 | 21.2 | 48.4 | – | – |
| C=C[Si](C)(C)COC(=O)/C(C#N)=C/C=C/c1ccccc1 | > 100 | – | > 100 | > 100 | > 100 | > 100 | > 100 | > 100 | > 100 | – | – | – | – | – | – | – | – | – | – | – |
